Molecules are shown by their SMILES.

Results on 64 compounds are retold here after a melting point compilation (Tetko et al.; mined from patent text by program, amines drawn as free bases though some values may be those of a salt).

`Cc1cc(O)n(-c2ccc(N3CCOCC3)nn2)n1` yielded a melting point of 189 to 192 °C.

`O=C(O)C=Cc1ccc(Oc2c(-c3ccc(O)cc3)ccc3cc(O)ccc23)cc1` yielded a melting point of 150 to 153 °C.

Take `Cn1c2c(c3cc(F)ccc31)C(=O)NCC2`: the melting point lay within 200 to 202 °C.

Consider `c1ccc(CSc2ncnc3c(N4CCOCC4)nc(N4CCNCC4)nc23)cc1`, for which the melting point was in the range of 191 to 193 °C.

Take `CCOC(=O)Cc1csc(NC(=O)C(Cc2ccccc2)NC(=O)OC(C)(C)C)n1` (centres undefined): the melting point lay in the range of 119 to 120 °C.

Consider `Cc1oc2c(OC(C)C(N)=NO)cccc2c1C` (centres undefined), for which the melting point was 147 to 148 °C.

`CC(=O)CCCN1CC[C@H](CNC(=O)c2cc(Cl)c(N)c3c2OCC3)[C@H](O)C1` (relative stereo) showed a melting point of 118 °C.

Turning to `COC(=O)[C@]1(OS(C)(=O)=O)C[C@H](CC(C)C)[C@@H]2O[C@@H]2C1`, the melting point is 120 to 121 °C.

Consider `CC(=O)Nc1c(C)c(C)c2c(c1C)CC(C)(C)O2`, for which the melting point is 190 °C.

For the compound `O=c1n(O)ccn1Cc1ccc(OCc2ccccc2)cc1`, the melting point is more than 175 °C.

On to `CC(C)(C)c1cc(CCc2cc(F)cc(F)c2NC(=O)NCC(C)(C)c2ccc(Cl)c(Cl)c2)cc(C(C)(C)C)c1O`, for which the melting point is 159 to 160 °C.

As to `Cc1cc(C)cc(COC(=O)[C@H](Cc2ccc3ccccc3c2)NC(=O)OC(C)(C)C)c1`, the melting point is 84 to 86 °C.

In turn, `COc1ccc(Nc2ccn(C(C)=O)n2)cc1` returned a melting point of 123 to 124 °C.

As to `FC(F)(F)c1nnc(SCc2ccccc2Cl)s1`, the melting point is 36 to 37 °C.

As for `COc1cc(O)c2c(c1OC)C(=O)C(O)=C(C)C2=O`, the melting point lay within 218 to 220 °C.

`CC(C)(CNC(=O)COCC(=O)O)SN=O` displayed a melting point of 81 to 83 °C.

`CC(=O)Oc1ccccc1[C@@H]1SC(C)(C)[C@H](C(=O)O)N1C(C)=O`: the melting point lay in the range of 214 to 216 °C.

Compound `O=C1c2ccccc2C(=O)N1OCCBr` had a melting point of 98 °C.

`O=C1N=NC(c2nc(Cl)c(Cl)[nH]2)=N1` gave a melting point of 176 to 178 °C.

With `COC(=O)c1cnc(N)c([N+](=O)[O-])c1`, the melting point lay within 195 to 196 °C.

`CCOc1cc(C(=O)c2ccccn2)ccc1OCCO`: the melting point was 140 to 141 °C.

The compound `COc1ccc(Cn2c(N)c(Br)c(=O)[nH]c2=O)cc1` had a melting point of 247 °C.

For the compound `CC(C)[Si](O[C@@H](CO)[C@H](CC1CCCCC1)NC(=O)OC(C)(C)C)(C(C)C)C(C)C`, the melting point is 61 to 63 °C.

The compound `CC(Oc1ncn(-c2cccc(Cl)c2)n1)C(N)=O` (centres undefined) displayed a melting point of 143 to 145 °C.

Compound `O=C(O)C(=O)c1ccc(OCCc2ccccc2)cc1` displayed a melting point of 72 to 73 °C.

In turn, `O=[N+]([O-])c1cccc(C2=NCN(c3cccnc3)S2)c1` registered a melting point of 109 to 111 °C.

Compound `COc1c(S(=O)(=O)N2CCC[C@H]2C(=O)O)ccc(Cl)c1COc1cccc2c(C)cc(C)nc12` registered a melting point of 134 to 138 °C.

`O=C1c2cccc(NC(=S)Nc3cccc(Br)n3)c2C2CCCCN12` (centres undefined) returned a melting point of 195 °C.

`COc1ccc2oc(-c3nc4c(s3)NCCCC4)cc2c1` showed a melting point of 121 to 125 °C.

In the case of `Cc1cc(-n2ccnc2)c2cccc(OCc3c(Cl)ccc(S(=O)(=O)N4CCC[C@H]4C(=O)NCCN4CCCC4)c3Cl)c2n1`, the melting point worked out at 105 °C.

`CSc1nccc(CC(=O)c2cccc(Br)c2)n1` came in with a melting point of 98 to 101 °C.

Compound `CCn1cc(C(=O)O)c(=O)c2ccc(N3CCNCC3)nc21` yielded a melting point of 272 to 273 °C.

As for `C[C@@H]1CCNC[C@@H]1N(C)c1nccc2[nH]ccc12`, the melting point was found to be 127 °C.

On to `CON1C(C)(C)CC(OC(=O)c2ccc3nn(-c4cc(C(C)(C)CC(C)(C)C)cc(C(C)(C)c5ccccc5)c4O)nc3c2)CC1(C)C`, for which the melting point is 84 to 90 °C.

Turning to `CC(=O)c1sc2c(Br)cccc2c1C`, the melting point lay in the range of 105 to 107 °C.

`COC(=O)c1ccnc(N2CCN(Cc3ccc(F)cc3)C2=O)c1`: the melting point was 119 to 121 °C.

In turn, `O=C1CC(NC(=O)C2CCCN3C(=O)CCC(NC(=O)c4ccccc4)C(=O)N23)C(OC2CCCC2)O1` (centres undefined) showed a melting point of 172 to 180 °C.

Consider `CC(=O)c1cc(N2CCCC2)ccc1NC(=O)c1cccc(OCc2ccccc2)c1`, for which the melting point fell in the range of 131 to 133 °C.

In turn, `CC(=O)OCc1ccc(-c2nc3c(s2)C(=O)c2ccccc2C3=O)o1` returned a melting point of 204 °C.

As to `CCn1nnc2c(sc3nc(C)ccc32)c1=O`, the melting point lay in the range of 165 to 167 °C.

Regarding `Cc1cc(C(=O)N2Cc3ccc(C(=O)O)n3Cc3ccccc32)ccc1C1=CCCc2ccccc21`, the melting point was 150 to 153 °C.

Take `CC1CCCN1CCCN1CCN(CCN2CCCC2C)C1=C(C#N)C#N` (centres undefined): the melting point was in the range of 69 to 71 °C.

As to `CCCCc1c(C(=O)O)ccc2ccc(OC)cc12`, the melting point was in the range of 123 to 125 °C.

In turn, `CCCC(CC(=O)NC(=O)OC(C)(C)C)Nc1ccc(Cl)cc1` (centres undefined) came in with a melting point of 76 to 77 °C.

Regarding `COc1ccc(-c2ccc(CCC#N)cc2)cc1`, the melting point was in the range of 105 to 107 °C.

`O=C(NCCOc1ccc(CC(Oc2ccccc2)C(=O)O)cc1)c1ccc(-c2ccc(C(F)(F)F)cc2)cc1` (centres undefined): the melting point fell in the range of 217 to 218 °C.

For the compound `CCCCCCCCc1cc2c(cc1/C(C)=C/c1ccc(C(=O)O)cc1)C(C)(C)CCS2(=O)=O`, the melting point lay within 176 to 178 °C.

For `O=C(O)c1ccc(OCC2CN(c3ccc([N+](=O)[O-])cc3)C(=O)O2)cc1` (centres undefined), the melting point fell in the range of 236 to 238 °C.

For `CC(C)(C)OC(=O)N1CC(=O)Nc2ccccc21`, the melting point was in the range of 143 to 144 °C.

The compound `CCCCCCCCCCCCNC1=NS(=O)(=O)N=C1NCCSCc1ccc(CN(C)C)o1` gave a melting point of 136 to 139 °C.

Turning to `COc1ccc2c(c1)c(CCO)c(C)n2Cc1ccc(Cl)cc1`, the melting point fell in the range of 113 to 115 °C.

With `O=C(O)C1CCc2ccccc2N1C(=O)CSSCC(=O)N1c2ccccc2CCC1C(=O)O` (centres undefined), the melting point is 172 to 174 °C.

In the case of `C[Si](C)(C)CC1=C[C@@H](c2ccccc2)[C@H]2C(=O)OC(=O)[C@H]2C1` (racemic), the melting point stood at 126 °C.

Turning to `CC(C)N(O)C(=O)Nc1ccc(S(C)=O)cc1` (centres undefined), the melting point worked out at 136 °C.

Regarding `CCOC(=O)Nc1cc(C(C)=O)c2c(c1)N(NC(C)c1ccccc1)c1ccccc1CC2` (centres undefined), the melting point was 144 to 152 °C.

As for `O=C(c1ccc(F)cc1)C1CCN(CCCn2c(=O)[nH]c3cc(Cl)c(Cl)cc32)CC1`, the melting point was in the range of 198 to 202 °C.

`CN(C)S(=O)(=O)c1cc([N+](=O)[O-])ccc1C(=O)O` yielded a melting point of 160 to 163 °C.

With `Sc1nccc(-c2ccccc2)n1`, the melting point lay in the range of 203 to 205 °C.

Turning to `O=C1OCCN1CCN1CCN(C2Cc3cc(Br)ccc3Sc3ccccc32)CC1` (centres undefined), the melting point lay in the range of 170 to 172 °C.

In turn, `CC(=O)N[C@@H](Cc1ccc(-c2cc3ccccc3c3ccccc23)cc1)C(=O)O` returned a melting point of 128 to 132 °C.

`O=c1[nH]cnn1-c1ccc(C(F)(F)F)cc1` showed a melting point of 221 °C.

Regarding `CC(=O)c1cn(S(=O)(=O)c2ccccc2)c2nccc(OCc3ccccc3)c12`, the melting point lay within 164 to 166 °C.

As to `O=C(O)CCN1CCN2c3ccccc3Cc3ccccc3C2C1` (centres undefined), the melting point was in the range of 195 to 197 °C.

For the compound `Cc1c(OCC(=O)O)ccc2c(=O)c3ccccc3oc12`, the melting point is 244 to 247 °C.
